Molecules are shown by their SMILES.

T1 sequence (O75460 547-977): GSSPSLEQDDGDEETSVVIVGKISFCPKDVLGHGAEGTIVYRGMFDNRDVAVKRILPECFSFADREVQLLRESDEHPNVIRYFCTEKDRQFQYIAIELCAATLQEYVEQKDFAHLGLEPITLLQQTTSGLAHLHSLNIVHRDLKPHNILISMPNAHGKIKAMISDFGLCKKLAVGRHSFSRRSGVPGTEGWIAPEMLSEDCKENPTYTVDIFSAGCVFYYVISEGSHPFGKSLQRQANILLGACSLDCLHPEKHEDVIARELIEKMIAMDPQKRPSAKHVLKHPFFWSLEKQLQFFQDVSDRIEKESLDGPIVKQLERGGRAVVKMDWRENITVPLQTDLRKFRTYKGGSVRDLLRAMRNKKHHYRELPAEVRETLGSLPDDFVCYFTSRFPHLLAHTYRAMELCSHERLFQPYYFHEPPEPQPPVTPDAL

This assay concerns the target T1, Serine/threonine-protein kinase/endoribonuclease IRE1 [547-977] (Homo sapiens, UniProt O75460).
T1 construct: 547-977
The assay is described as follows: In vitro RNase Assay. From the text: The fluorescence intensities were normalized by setting the signal for the reaction without IRE1α* to 0.
`CC(C)(C)c1nc(-c2ccc(NC(=O)Nc3cccc(C(F)(F)F)c3)c3ccccc23)c2c(N)nccn12` [KIRA analog, 2] gave an IC50 of 0.12 µM. For the molecule `CC1(c2nc(-c3ccc(NC(=O)Nc4cccc(C(F)(F)F)c4)c4ccccc34)c3c(N)nccn23)CC1` [KIRA analog, 3], the midpoint of inhibition, the IC50, lay at 0.09 µM.

Molecule `Nc1nccn2c(C3CCC3)nc(-c3ccc(NC(=O)Nc4cccc(C(F)(F)F)c4)c4ccccc34)c12` [KIRA analog, 4] came in with an IC50 of 0.18 µM. `Nc1nccn2c(C3CC3)nc(-c3ccc(NC(=O)Nc4cccc(C(F)(F)F)c4)c4ccccc34)c12` [KIRA analog, 5]: 0.48 µM corresponded to half-maximal inhibition (IC50). The molecule `CC1(c2nc(-c3ccc(NC(=O)Nc4cccc(C(F)(F)F)c4)c4ccccc34)c3c(N)nccn23)COC1` [KIRA analog, 6] registered an IC50 of 0.33 µM. With `CC1(c2nc(-c3ccc(NC(=O)Nc4cccc(C(F)(F)F)c4)cc3F)c3c(N)nccn23)CC1` [KIRA analog, 7], the midpoint of inhibition, the IC50, lay at 0.39 µM. Turning to `Cc1cc(NC(=O)Nc2cccc(C(F)(F)F)c2)ccc1-c1nc(C2(C)CC2)n2ccnc(N)c12` [KIRA analog, 8], the IC50 stood at 1.5 µM. Consider `CC1(c2nc(-c3ccc(NC(=O)Nc4cccc(C(F)(F)F)c4)cc3Cl)c3c(N)nccn23)CC1` [KIRA analog, 9], for which it took 2.4 µM to reach half-maximal inhibition (IC50).

Turning to `Cc1c(NC(=O)Nc2cccc(C(F)(F)F)c2)ccc(-c2nc(C3(C)CC3)n3ccnc(N)c23)c1C` [KIRA analog, 10], the IC50 amounted to 1.2 µM. The molecule `CC1(c2nc(-c3ccc(NC(=O)Nc4cccc(C(F)(F)F)c4)c(F)c3F)c3c(N)nccn23)CC1` [KIRA analog, 11] had an IC50 of 20 µM. `CC1(c2nc(-c3ccc(NC(=O)Nc4ccccc4)c4ccccc34)c3c(N)nccn23)CC1` [KIRA analog, 12] gave an IC50 of 0.19 µM. In the case of `CC1(c2nc(-c3ccc(NC(=O)Nc4cccc(F)c4)c4ccccc34)c3c(N)nccn23)CC1` [KIRA analog, 13] it was 0.22 µM; in that of `Cc1cccc(NC(=O)Nc2ccc(-c3nc(C4(C)CC4)n4ccnc(N)c34)c3ccccc23)c1` [KIRA analog, 14], 0.26 µM. Turning to `COc1cccc(NC(=O)Nc2ccc(-c3nc(C4(C)CC4)n4ccnc(N)c34)c3ccccc23)c1` [KIRA analog, 15], the IC50 was 0.31 µM. Take `CSc1cccc(NC(=O)Nc2ccc(-c3nc(C4(C)CC4)n4ccnc(N)c34)c3ccccc23)c1` [KIRA analog, 16]: it took 0.14 µM to reach half-maximal inhibition (IC50).

`COc1cc(NC(=O)Nc2ccc(-c3nc(C4(C)CC4)n4ccnc(N)c34)c3ccccc23)cc(C(F)(F)F)c1` [KIRA analog, 17] displayed an IC50 of 0.29 µM.

Molecule `CC1(c2nc(-c3ccc(NC(=O)Nc4cc(F)cc(C(F)(F)F)c4)c4ccccc34)c3c(N)nccn23)CC1` [KIRA analog, 18] registered an IC50 of 0.61 µM. The molecule `CNS(=O)(=O)c1cccc(NC(=O)Nc2ccc(-c3nc(C4(C)CC4)n4ccnc(N)c34)c3ccccc23)c1` [KIRA analog, 19] yielded an IC50 of 1.6 µM. `CN1CCN(Cc2ccc(NC(=O)Nc3ccc(-c4nc(C5(C)CC5)n5ccnc(N)c45)c4ccccc34)cc2C(F)(F)F)CC1` [KIRA analog, 20] registered an IC50 of 0.19 µM. On to `CN1CCN(Cc2ccc(NC(=O)Nc3ccc(-c4nc(C5(C)CC5)n5ccnc(N)c45)c4ccccc34)cc2)CC1` [KIRA analog, 21], for which the IC50 came out at 0.34 µM. Take `Cc1cc(NC(=O)Nc2ccc(-c3nc(C4(C)CC4)n4ccnc(N)c34)c3ccccc23)n[nH]1` [KIRA analog, 22]: the IC50 came out at 7.1 µM. To `CC1(c2nc(-c3ccc(NC(=O)NCc4ccccc4)c4ccccc34)c3c(N)nccn23)CC1` [KIRA analog, 23] belongs 3.6 µM. In the case of `CC1(c2nc(-c3ccc(NC(=O)NCCc4ccccc4)c4ccccc34)c3c(N)nccn23)CC1` [KIRA analog, 24] it was 4.1 µM; in that of `CC1(c2nc(-c3ccc(NC(=O)NC4CCCCC4)c4ccccc34)c3c(N)nccn23)CC1` [KIRA analog, 25], 2.2 µM; in that of `CC1(c2nc(-c3ccc(NC(=O)N4CCOCC4)c4ccccc34)c3c(N)nccn23)CC1` [KIRA analog, 26], 60 µM.

As to `CC1(c2nc(-c3ccc(NC(=O)N4CCCCC4)c4ccccc34)c3c(N)nccn23)CC1` [KIRA analog, 27], the IC50 came to 60 µM. In the case of `CC1(c2nc(-c3ccc(NC(=O)NC4CC4)c4ccccc34)c3c(N)nccn23)CC1` [KIRA analog, 28] it was 6.3 µM. On to `CN(C(=O)Nc1ccc(-c2nc(C3(C)CC3)n3ccnc(N)c23)c2ccccc12)c1cccc(C(F)(F)F)c1` [KIRA analog, 29], for which inhibition was half-maximal at 19 µM (IC50).

For `CC(C)(C)c1nc(-c2ccc(NC(=O)N3CCN(c4cccc(C(F)(F)F)c4)C3=O)c3ccccc23)c2c(N)nccn12` [KIRA analog, 30], the IC50 is > 60 µM. For the molecule `CC1(c2nc(-c3ccc(NC(=O)OCCc4ccccc4)c4ccccc34)c3c(N)nccn23)CC1` [KIRA analog, 31], half-maximal inhibition (IC50) required 60 µM.

For `CC1(c2nc(-c3ccc(NC(=O)OCC(=O)c4ccccc4)c4ccccc34)c3c(N)nccn23)CC1` [KIRA analog, 32], it took 60 µM to reach half-maximal inhibition (IC50).

For orientation: IC50 means the concentration that gives 50% inhibition.

The record behind these values is BindingDB's records for doi:10.1021/acschembio.5b00940 (University of Washington, 2016).
